{
  "source": "patent US8246966B2",
  "about": "“Trypanosome microsome system and uses thereof” (priority 2006, dated 2012)",
  "test_system": "T. brucei microsomes (TbRM)",
  "experiment": "Post-translational import of VSG-11786 into TbRM with inhibitors (Example 4)",
  "type": "biochemical, Trypanosoma brucei",
  "conditions": "10 μM",
  "description": "FIGS. 7A to 7C. […] VSG-11786 mRNA was translated in rabbit reticulocyte lysate in the absence or presence of T. brucei cytosol for 1 hour at 37° C., and then cycloheximide was added to stop protein synthesis. TbRM (1 equivalent) and MAL3-101 (10 μM), MAL3-51 (10 μM), or an equal volume of DMSO was added to the samples on ice, and the mixture was incubated at 37° C. for 1.5 hours for translocation of VSG-11786 into the microsomes. Reaction mixtures were treated with proteinase K (PK) for one hour on ice. Proteolysis was terminated with PMSF. Proteins were precipitated with ammonium sulfate, pelleted by centrifugation, resuspended in SDS-PAGE sample buffer, and resolved by Tris-Tricine SDS-PAGE. Gel images were obtained with a phosphorimager and analyzed with Quantity-One software. Reaction mixtures for odd numbered lanes contained TbRM, but not proteinase K; even numbered lanes contained TbRM and proteinase K. Brackets denote lanes that were compared to obtain percentage of VSG-11786 import values. FIG. 7B is a graphical representation of data from FIG. 7A. […] In FIG. 7C, the effect of MAL3-101 on T. brucei growth.\nFIGS. 8A to 8D. Effects of NFI028 and CAM741 on import of VSG-11786 into T. brucei microsomes. […] VSG-11786 mRNA was translated in rabbit reticulocyte lysate in the presence of T. brucei cytosol for one hour at 37° C., and then protein synthesis was stopped by the addition of cycloheximide. […] Reaction mixtures were treated with proteinase K (PK) on ice for one hour. Proteolysis was terminated with PMSF. Proteins were precipitated with ammonium sulfate, pelleted, resuspended in SDS-PAGE sample buffer, and resolved by Tris-Tricine SDS-PAGE. Images of radiolabeled proteins were obtained with a phosphorimager and quantitated with Quantity-One software. Samples depicted in odd numbered lanes contained TbRM, but were not treated proteinase K. Reaction mixtures shown in even numbered lanes contained TbRM and were treated with proteinase K. Brackets denote lanes that were compared to each other in order to obtain percentage of VSG-11786 import values. FIG. 8B is a graphical representation of data from FIG. 8A.\nFIGS. 9A to 9D. Effects of azide, AEE788, and valinomycin on VSG-11786 import into T. brucei microsomes. […] VSG-11786 mRNA was translated in rabbit reticulocyte lysate in the presence of T. brucei cytosol for one hour at 37° C. Cycloheximide was added to stop proteins synthesis. TbRM (1 equivalent) and sodium azide (8 μM), AEE788 (8 μM), an equal volume of microsome buffer (RMB) or DMSO was added to the samples on ice, and the mixtures were incubated at 37 C for 1.5 hours. Reaction mixtures were treated with proteinase K (PK) on ice for one hour. Proteolysis was terminated with PMSF. Proteins were precipitated with ammonium sulfate, pelleted, resuspended in SDS-PAGE sample buffer, and resolved by Tris-Tricine SDS-PAGE. Images of radiolabeled proteins were obtained with a phosphorimager and quantitated with Quantity-One software. Brackets show lanes that were compared to each other in order to obtain percentage of VSG-11786 imported into TbRM. Lanes 1, 3, 5, & 7 were treated with TbRM, but not proteinase K. Lanes 2, 4, 6, & 8 were treated with TbRM and proteinase K. FIG. 9B is a graphical representation of data from FIG. 9A. […] Reaction mixtures depicted in odd lanes contained TbRM, but were not treated with proteinase K; even lanes contained TbRM and were treated with proteinase K. FIG. 9D is a graphical representation of data from panel FIG. 9C.",
  "data": [
    {"compound": "CCCCCCN(C(=O)CCCCCN1C(=O)NC(c2ccc(-c3ccccc3)cc2)C(C(=O)OCc2ccccc2)=C1C)C(C(=O)NCCCC)c1ccc(OCC(=O)OC)c(C(=O)OC)c1", "note": "(centres unmarked) [MAL3-101]", "values": [
      {"measurement": "reduction of VSG-11786 import into TbRM compared to DMSO control", "setting": "absence of T. brucei cytosol", "value": 54, "unit": "%"},
      {"measurement": "VSG-11786 imported into TbRM", "setting": "presence of T. brucei cytosol", "value": 90, "unit": "%"}
    ]}
  ]
}
